Assay results: PubChem BioAssay AID1259407 (Chemical Carcinogenesis Research Information System (CCRIS), 2018)
Active and inactive are the calls of the source. The rule behind the calls is not given here.

Tested on: CCRIS mutagenicity, Ames/micronucleus/aberration tests
Experiment: CCRIS mutagenicity studies
[1] = Test System: AMES SALMONELLA TYPHIMURIUM, Strain/Indicator: TA98, Metabolic Activation: NONE, Method: STANDARD PLATE
[2] = Test System: AMES SALMONELLA TYPHIMURIUM, Strain/Indicator: TA98, Metabolic Activation: RAT, LIVER, S-9, AROCLOR 1254, Method: STANDARD PLATE
[3] = Test System: AMES SALMONELLA TYPHIMURIUM, Strain/Indicator: TA100, Metabolic Activation: RAT, LIVER, S-9, AROCLOR 1254, Method: STANDARD PLATE
[4] = Test System: MOUSE LYMPHOMA, Strain/Indicator: L5178Y (TK+/TK-), Metabolic Activation: NONE, Method: SUSPENSION/PLATE
[5] = Test System: MOUSE LYMPHOMA, Strain/Indicator: L5178Y (TK+/TK-), Metabolic Activation: RAT, LIVER, S-9, AROCLOR 1254, Method: SUSPENSION/PLATE
[6] = Test System: AMES SALMONELLA TYPHIMURIUM, Strain/Indicator: TA100, Metabolic Activation: NONE, Method: STANDARD PLATE
[7] = Test System: AMES SALMONELLA TYPHIMURIUM, Strain/Indicator: TA1537, Metabolic Activation: NONE, Method: STANDARD PLATE
[8] = Test System: AMES SALMONELLA TYPHIMURIUM, Strain/Indicator: TA1537, Metabolic Activation: RAT, LIVER, S-9, AROCLOR 1254, Method: STANDARD PLATE
[9] = Test System: AMES SALMONELLA TYPHIMURIUM, Strain/Indicator: TA98, Metabolic Activation: NONE, Method: PREINCUBATION
[10] = Test System: AMES SALMONELLA TYPHIMURIUM, Strain/Indicator: TA100, Metabolic Activation: NONE, Method: PREINCUBATION
[11] = Test System: AMES SALMONELLA TYPHIMURIUM, Strain/Indicator: TA1535, Metabolic Activation: NONE, Method: STANDARD PLATE
[12] = Test System: AMES SALMONELLA TYPHIMURIUM, Strain/Indicator: TA1538, Metabolic Activation: NONE, Method: STANDARD PLATE

**Q.** With `ClCc1cccnc1` as the compound, how does the mutagenic call [1] read?
**A.** Its mutagenic call is “inactive; negative”.

**Q.** And the mutagenic call [2]?
**A.** Its mutagenic call is “inactive; negative”.

**Q.** And the mutagenic call [3]?
**A.** The mutagenic call was “active; positive”.

**Q.** And the mutagenic call (Test System: AMES SALMONELLA TYPHIMURIUM, Strain/Indicator: TA102, Metabolic Activation: NONE, Method: STANDARD PLATE)?
**A.** Its mutagenic call is “inactive; negative”.

**Q.** What about the mutagenic call (Test System: AMES SALMONELLA TYPHIMURIUM, Strain/Indicator: TA102, Metabolic Activation: RAT, LIVER, S-9, AROCLOR 1254, Method: STANDARD PLATE) of the same compound?
**A.** The mutagenic call was “inactive; negative”.

**Q.** What about the mutagenic call (Test System: E. COLI, Strain/Indicator: WP2 UVRA, Metabolic Activation: MOUSE, LIVER, S-9, AROCLOR 1254, Method: STANDARD PLATE) of the same compound?
**A.** The mutagenic call was “inactive; negative”.

**Q.** What about the mutagenic call (Test System: E. COLI, Strain/Indicator: WP2 UVRA, Metabolic Activation: NONE, Method: STANDARD PLATE) of the same compound?
**A.** The mutagenic call was “inactive; negative”.

**Q.** What about the mutagenic call (Test System: E. COLI, Strain/Indicator: WP2 UVRA, Metabolic Activation: RAT, LIVER, S-9, AROCLOR 1254, Method: STANDARD PLATE) of the same compound?
**A.** The mutagenic call was “inactive; negative”.

**Q.** And the mutagenic call (Test System: E. COLI, Strain/Indicator: WP2 UVRA, Metabolic Activation: RAT, LIVER, S-9, Method: STANDARD PLATE)?
**A.** The mutagenic call was “inactive; negative”.

**Q.** And the mutagenic call [4]?
**A.** Its mutagenic call is “active; positive”.

**Q.** What about the mutagenic call [5] of the same compound?
**A.** Its mutagenic call is “active; positive”.

**Q.** Which mutagenic call [1] does the source give for `CCCN(CCC)CCc1cccc2[nH]c3c(C)ccc(C)c3c12` here?
**A.** Its mutagenic call is “inactive; negative”.

**Q.** And the mutagenic call (Test System: AMES SALMONELLA TYPHIMURIUM, Strain/Indicator: TA98, Metabolic Activation: RAT, LIVER, S-9, PHENOBARBITAL AND 5,6-BENZOFLAVONE, Method: STANDARD PLATE)?
**A.** Its mutagenic call is “active; positive”.

**Q.** What about the mutagenic call [6] of the same compound?
**A.** The mutagenic call was “inactive; negative”.

**Q.** What about the mutagenic call (Test System: AMES SALMONELLA TYPHIMURIUM, Strain/Indicator: TA100, Metabolic Activation: RAT, LIVER, S-9, PHENOBARBITAL AND 5,6-BENZOFLAVONE, Method: STANDARD PLATE) of the same compound?
**A.** Its mutagenic call is “active; positive”.

**Q.** And the mutagenic call (Test System: UDS HUMAN HEPATOCYTES, Strain/Indicator: THY INCORP, Metabolic Activation: NONE, Method: IN VITRO)?
**A.** The mutagenic call was “active; positive”.

**Q.** And the mutagenic call (Test System: UDS RAT HEPATOCYTES, Strain/Indicator: THY INCORP, Metabolic Activation: NONE, Method: IN VIVO-IN VITRO)?
**A.** Its mutagenic call is “active; positive”.

**Q.** Which mutagenic call [6] does the source give for `O=C1Nc2cc3ccccc3c3c4c(cc1c23)OCO4` here?
**A.** The mutagenic call was “inactive; negative”.

**Q.** What about the mutagenic call [3] of the same compound?
**A.** Its mutagenic call is “active; positive”.

**Q.** And the mutagenic call [7]?
**A.** The mutagenic call was “inactive; negative”.

**Q.** And the mutagenic call [8]?
**A.** The mutagenic call was “active; positive”.

**Q.** Which results are given for `O=[N+]([O-])c1cc(Cl)cc(Cl)c1O`?
**A.** mutagenic call [9]: inactive; negative; mutagenic call [1]: inactive; negative; mutagenic call [10]: inactive; negative; mutagenic call [6]: inactive; negative; mutagenic call (Test System: CHINESE HAMSTER V-79, Strain/Indicator: V-79/6-THIOGUANINE, Metabolic Activation: NONE): inactive; negative

**Q.** Which mutagenic call [1] does the source give for `Cc1ccc(S(=O)(=O)NC(=O)Nc2ncc([N+](=O)[O-])s2)cc1` here?
**A.** Its mutagenic call is “inactive; negative”.

**Q.** What about the mutagenic call [6] of the same compound?
**A.** The mutagenic call was “inactive; negative”.

**Q.** With `CCCCNNCCCC` as the compound, how does the mutagenic call (Test System: AMES SALMONELLA TYPHIMURIUM, Strain/Indicator: TA100, Metabolic Activation: NONE, Method: PREINCUBATION (11 HR GROWTH PERIOD FOR BACTERIA)) read?
**A.** The mutagenic call was “active; positive”.

**Q.** And the mutagenic call (Test System: AMES SALMONELLA TYPHIMURIUM, Strain/Indicator: TA100, Metabolic Activation: RAT, LIVER, S-9, PCB, Method: PREINCUBATION (11 HR GROWTH PERIOD FOR BACTERIA))?
**A.** The mutagenic call was “inactive; negative”.

**Q.** What about the mutagenic call (Test System: AMES SALMONELLA TYPHIMURIUM, Strain/Indicator: TA102, Metabolic Activation: NONE, Method: PREINCUBATION (5 OR 7 HR GROWTH PERIOD FOR BACTERIA)) of the same compound?
**A.** Its mutagenic call is “active; positive”.

**Q.** What about the mutagenic call (Test System: AMES SALMONELLA TYPHIMURIUM, Strain/Indicator: TA102, Metabolic Activation: RAT, LIVER, S-9, PCB, Method: PREINCUBATION (5 OR 7 HR GROWTH PERIOD FOR BACTERIA)) of the same compound?
**A.** Its mutagenic call is “active; positive”.

**Q.** What does the source list for `CCN(CCCl)CCCNc1c2ccccc2nc2c1ccc1ccccc12`?
**A.** mutagenic call [1]: active; positive; mutagenic call [6]: active; positive; mutagenic call [11]: inactive; negative; mutagenic call (Test System: AMES SALMONELLA TYPHIMURIUM, Strain/Indicator: TA1536, Metabolic Activation: NONE, Method: STANDARD PLATE): active; positive; mutagenic call [7]: active; positive; mutagenic call [12]: active; positive; mutagenic call (Test System: CHO/HGPRT, Strain/Indicator: CHO-K1-BH4, Metabolic Activation: NONE, Method: STANDARD PLATE): active; positive

**Q.** For `O=S(=O)(O)Oc1c2ccccc2c2ccc3cccc4ccc1c2c43`, which mutagenic call [9] is on record?
**A.** The mutagenic call was “inactive; negative”.

**Q.** What about the mutagenic call (Test System: AMES SALMONELLA TYPHIMURIUM, Strain/Indicator: TA98, Metabolic Activation: RAT, LUNG, S-9, Method: PREINCUBATION) of the same compound?
**A.** The mutagenic call was “inactive; negative”.

**Q.** For `Cc1ccc2ccc([N+](=O)[O-])cc2c1`, which mutagenic call [9] is on record?
**A.** The mutagenic call was “active; positive”.

**Q.** What does the source list for `CC(N)c1ccccc1.CC(N)c1ccccc1.[Cl][Pt][Cl]` (centres undefined)?
**A.** mutagenic call [1]: active; positive; mutagenic call [6]: active; positive; mutagenic call (Test System: AMES SALMONELLA TYPHIMURIUM, Strain/Indicator: TA2410, Metabolic Activation: NONE, Method: STANDARD PLATE): active; positive

**Q.** Which results are given for `O=[N+]([O-])c1ccc(-c2ccccc2)c([N+](=O)[O-])c1`?
**A.** mutagenic call [9]: active; positive; mutagenic call (Test System: AMES SALMONELLA TYPHIMURIUM, Strain/Indicator: TA98, Metabolic Activation: RAT, LIVER, S-9, PCB (10%), Method: PREINCUBATION): active; positive

**Q.** How did the mutagenic call [1] turn out when `O=[N+]([O-])C1=Cc2ccc3ccc4cccc5cc1c2c3c45` was run?
**A.** Its mutagenic call is “active; positive”.

**Q.** What about the mutagenic call [2] of the same compound?
**A.** The mutagenic call was “active; positive”.

**Q.** And the mutagenic call [6]?
**A.** Its mutagenic call is “active; positive”.

**Q.** And the mutagenic call [3]?
**A.** The mutagenic call was “inactive; negative”.

**Q.** What about the mutagenic call [11] of the same compound?
**A.** Its mutagenic call is “inactive; negative”.

**Q.** What about the mutagenic call (Test System: AMES SALMONELLA TYPHIMURIUM, Strain/Indicator: TA1535, Metabolic Activation: RAT, LIVER, S-9, AROCLOR 1254, Method: STANDARD PLATE) of the same compound?
**A.** The mutagenic call was “inactive; negative”.

**Q.** What about the mutagenic call [7] of the same compound?
**A.** The mutagenic call was “active; positive”.

**Q.** What about the mutagenic call [8] of the same compound?
**A.** The mutagenic call was “active; positive”.

**Q.** What about the mutagenic call [12] of the same compound?
**A.** Its mutagenic call is “active; positive”.

**Q.** And the mutagenic call (Test System: AMES SALMONELLA TYPHIMURIUM, Strain/Indicator: TA1538, Metabolic Activation: RAT, LIVER, S-9, AROCLOR 1254, Method: STANDARD PLATE)?
**A.** Its mutagenic call is “active; positive”.

**Q.** Which results are given for `C1CCNCC1`?
**A.** mutagenic call [4]: active; positive; mutagenic call [5]: inactive; negative

**Q.** `Nc1ccc(N=Nc2cccc(N)c2N)cc1` was tested. Which mutagenic call (Test System: AMES SALMONELLA TYPHIMURIUM, Strain/Indicator: TA98, Method: PREINCUBATION) did it give?
**A.** Its mutagenic call is “active; positive”.

**Q.** What about the mutagenic call (Test System: AMES SALMONELLA TYPHIMURIUM, Strain/Indicator: TA100, Method: PREINCUBATION) of the same compound?
**A.** The mutagenic call was “active; positive”.

**Q.** What does the source list for `N=c1c2ncn(C(c3ccccc3)c3ccccc3)c2ncn1O`?
**A.** mutagenic call (Test System: AMES SALMONELLA TYPHIMURIUM, Strain/Indicator: TA97, Metabolic Activation: NONE, Method: STANDARD PLATE): inactive; negative; mutagenic call (Test System: AMES SALMONELLA TYPHIMURIUM, Strain/Indicator: TA97, Metabolic Activation: RAT, LIVER, S-9, AROCLOR 1254, Method: STANDARD PLATE): inactive; negative; mutagenic call [1]: inactive; negative; mutagenic call [2]: active; positive; mutagenic call [6]: inactive; negative; mutagenic call [3]: inactive; negative

**Q.** Which mutagenic call [10] does the source give for `CCCCCC[C@@H](O)[C@@H]1C2=C(C[C@H]([C@H](O)[C@@H]3CC=CC(=O)O3)CC3=C(C(=O)OC3=O)[C@@H]1O)C(=O)OC2=O` here?
**A.** The mutagenic call was “inactive; negative”.

**Q.** And the mutagenic call (Test System: AMES SALMONELLA TYPHIMURIUM, Strain/Indicator: TA100, Metabolic Activation: RAT, LIVER, S-9, PHENOBARBITAL, Method: PREINCUBATION)?
**A.** Its mutagenic call is “inactive; negative”.
